Results on 4 compounds are retold here after ChEMBL document CHEMBL1137318, “Dipyridyl thiosemicarbazone chelators with potent and selective antitumor activity form iron complexes with redox activity” (J Med Chem, 2006).

pIC50: −log10 of the molar value. Calls of active or inactive are those of the source. The rule behind the calls is not given here.

The nature of test [1]: Increase in Fe(2+)-mediated hydroxyl radical production measured as hydroxylation of benzoate at IBE of 3 relative to control. The format is functional.
Test [2] can be described thus: Increase in Fe(3+)-mediated ascorbate oxidation at IBE of 1 relative to control. The test is classed as functional.
A short description of test [3]: Increase in Fe(2+)-mediated hydroxyl radical production measured as hydroxylation of benzoate at IBE of 1 relative to control. The format is functional.
Test [4] is described as follows: Increase in Fe(3+)-mediated ascorbate oxidation at IBE of 3 relative to control. The test is classed as functional.
For another test, the system named is Nucleic Acid. The experiment in a line: Binding affinity to DNA measured as hypochromicity of UV-vis spectra. The format is nucleic-acid assay.
Test [5] is described as follows: Inhibition of hydroxylation of benzoate in presence of Fe(II) at IBE of 3 relative to control. The test is classed as functional. As to conditions: dose or concentration not given here.
The nature of test [6]: Inhibition of hydroxylation of benzoate in presence of Fe(II) at IBE of 1 relative to control. The format is functional. As to conditions: dose or concentration not given here.
Test [7] in a line: Inhibition of Fe(3+)-mediated ascorbate oxidation at IBE of 0.1 relative to control. The format is functional. As to conditions: dose or concentration not given here.
The nature of test [8]: Inhibition of Fe(3+)-mediated ascorbate oxidation at IBE of 3 relative to control. The format is functional. As to conditions: dose or concentration not given here.
A short description of test [9]: Inhibition of Fe(3+)-mediated ascorbate oxidation at IBE of 1 relative to control. The format is functional. As to conditions: dose or concentration not given here.
Another test deals with SK-N-MC. The experiment in a line: Antiproliferative activity against human SK-N-MC cells after 96 hrs by MTT assay. The test is classed as functional, cell-based. On the technique in general: Tetrazolium assays rely on reduction of a dye to a coloured formazan, in cell work by metabolically active cells.
Test [10] is described as follows: Increase in Fe(3+)-mediated ascorbate oxidation at IBE of 0.1 relative to control. The test is classed as functional.

For `O=C(O)CN(CCN(CC(=O)O)CC(=O)O)CC(=O)O`, the Activity in test [1] amounted to 343%; in test [2], 475%; in test [3] it was 309%; in test [4], 482%.
As to `COc1cccc2c1C(=O)c1c(O)c3c(c(O)c1C2=O)C[C@@](O)(C(=O)CO)C[C@@H]3O[C@H]1C[C@H](N)[C@H](O)[C@H](C)O1`, the Activity in the test on Nucleic Acid is 36%.
One may read the inhibition as the change of the read-out against control, counted positive when it falls. By pIC50 is commonly meant the IC50 on a negative log10 scale, so that one unit is a factor of ten. Read a low pIC50 as a high IC50. Turning to `CC(=O)N(O)CCCCCNC(=O)CCC(=O)N(O)CCCCCNC(=O)CCC(=O)N(O)CCCCCN` [DEFEROXAMINE], the inhibition was 56% in test [5]; 56% in test [6]; 79% in test [7]; 59% in [8]; 60% in test [9]. In the test on SK-N-MC, this compound gave a pIC50 of 5.07.
Take `CN(C)C(=S)NN=C(c1ccccn1)c1ccccn1`: the outcome in test [1] and in test [10] was Active. The Activity in [2] turned out to be 439%; in test [4] it was 406%. The same compound gave a negative-log IC50 (pIC50) with SK-N-MC of 8.00.
